According to patent US10543298B2, “Salts of tetracyclines” (Hovione Scientia Limited, priority 2015, dated 2020):
Where a name gives a salt, the structure may show the parent alone. Read-outs that look alike come from different tables or passages of the source.

Key:
[1] = Color classification according to the Munsell color system; assay type: physicochemical; settings: for Munsell Classification: Munsell color system
Excerpt: The table below presents the color classification of the doxycycline salts according to the Munsell color system.

[2] = Solubility in buffers at pH 1.0, 1.2, 4.5, 6.8 and 7.5; assay type: physicochemical; settings: for Solubility pH = 1.0 (class) / Solubility pH = 1.0 (volume of solvent required for dissolution per gram of solute): buffer pH 1.0, KCl 0.2 M / HCl 0.2 M; for Solubility pH = 1.2 (class) / Solubility pH = 1.2 (volume of solvent required for dissolution per gram of solute): buffer pH 1.2, KCl 0.2 M / HCl 0.2 M; for Solubility pH = 4.5 (class) / Solubility pH = 4.5 (volume of solvent required for dissolution per gram of solute): buffer pH 4.5, potassium biphthalate 0.2 M / HCl 0.2 M; for Solubility pH = 6.8 (class) / Solubility pH = 6.8 (volume of solvent required for dissolution per gram of solute): buffer pH 6.8, monobasic potassium phosphate 0.2 M / NaOH 0.2 M; for Solubility pH = 7.5 (class) / Solubility pH = 7.5 (volume of solvent required for dissolution per gram of solute): buffer pH 7.5, monobasic potassium phosphate 0.2 M / NaOH 0.2 M
Method: The buffers at pH 1.0 and 1.2 were prepared with aqueous solutions of potassium chloride 0.2M and hydrochloric acid 0.2 M, the buffers at pH 6.8 and 7.5 were prepared with aqueous solutions of monobasic potassium phosphate 0.2 M and sodium hydroxide 0.2 M and the buffer at pH 4.5 with aqueous solutions of potassium biphthalate 0.2 M and hydrochloric acid 0.2 M, according to pharmacopoeia USP31.
The statement freely soluble means that the volume of solvent (required for dissolution) in ml per gram of solute is of from 1 to 10. The statement soluble means that the volume of solvent (required for dissolution) in ml per gram of solute is of from […]. The statement sparingly soluble means that the volume of solvent (required for dissolution) in ml per gram of solute is of from 30 to 100. The statement slightly soluble means that the volume of solvent (required for dissolution) in ml per gram of solute is of from 100 to 1000. The statement very slightly soluble means that the volume of solvent (required for dissolution) in ml per gram of solute is from 1000 to 10 000.

[3] = pH of aqueous solutions of the salts; settings: for pH: aqueous solution, concentration approximately 10^-3 M
[4] = background statement on the acidic salt; cited from earlier work

| Compound | Color Description [1] | Munsell Classification [1] | Munsell Classification ([1]; listed as doxycycline hyclate) | Solubility pH = 1.0 (class) [2] | Solubility pH = 1.0 (volume of solvent required for dissolution per gram of solute) [2] [ml/g] | Solubility pH = 1.2 (class) [2] | Solubility pH = 1.2 (volume of solvent required for dissolution per gram of solute) [2] [ml/g] | Solubility pH = 4.5 (class) [2] | Solubility pH = 4.5 (volume of solvent required for dissolution per gram of solute) [2] [ml/g] | Solubility pH = 6.8 (class) [2] | Solubility pH = 6.8 (volume of solvent required for dissolution per gram of solute) [2] [ml/g] | Solubility pH = 7.5 (class) [2] | Solubility pH = 7.5 (volume of solvent required for dissolution per gram of solute) [2] [ml/g] | pH [3] | Solubility compared with doxycycline monohydrate ([2]; pH 4.5, pH 6.8 and pH 7.5) | Solubility compared with the hydrochloride / hyclate ([2]; pH 1.0, 1.2, 4.5, 6.8 and 7.5 (all pH values tested)) | Solubility compared with doxycycline monohydrate ([2]; pH 1.0 and pH 1.2) | pH compared with the marketed form ([3]; comparison of the values of the pH table) | pH [4] |
| --- | --- | --- | --- | --- | --- | --- | --- | --- | --- | --- | --- | --- | --- | --- | --- | --- | --- | --- | --- |
| CCO.C[C@H]1c2cccc(O)c2C(=O)C2=C(O)[C@]3(O)C(=O)C(C(N)=O)=C(O)[C@@H](N(C)C)[C@@H]3[C@@H](O)[C@@H]21.C[C@H]1c2cccc(O)c2C(=O)C2=C(O)[C@]3(O)C(=O)C(C(N)=O)=C(O)[C@@H](N(C)C)[C@@H]3[C@@H](O)[C@@H]21.Cl.Cl.O [Doxycycline Hyclate, reference compound] | Yellowish | 10Y 9/3.5 NN | yellowish 10Y | Soluble (The statement soluble means that the volume of solvent (required for dissolution) in ml per gram of solute is of from 1 to 30) | 16 | Freely soluble (The statement freely soluble means that the volume of solvent (required for dissolution) in ml per gram of solute is of from 1 to 10) | 3 | Sparingly (The statement sparingly soluble means that the volume of solvent (required for dissolution) in ml per gram of solute is of from 30 to 100) | 53 | Freely soluble (The statement freely soluble means that the volume of solvent (required for dissolution) in ml per gram of solute is of from 1 to 10) | 2 | Sparingly (The statement sparingly soluble means that the volume of solvent (required for dissolution) in ml per gram of solute is of from 30 to 100) | 100 | – | – | – | – | – | – |
| CC1c2cccc(O)c2C(O)=C2C(=O)C3(O)C(O)=C(C(N)=O)C(=O)C(N(C)C)C3C(O)C21.O=C(O)C=CC(=O)O (stereo not shown) [Doxycycline Maleate] | Off-white | 9.25/10Y/2.5 NN | – | Soluble (The statement soluble means that the volume of solvent (required for dissolution) in ml per gram of solute is of from 1 to 30) | 13 | Soluble (The statement soluble means that the volume of solvent (required for dissolution) in ml per gram of solute is of from 1 to 30) | 13 | Sparingly (The statement sparingly soluble means that the volume of solvent (required for dissolution) in ml per gram of solute is of from 30 to 100) | 63 | Sparingly (The statement sparingly soluble means that the volume of solvent (required for dissolution) in ml per gram of solute is of from 30 to 100) | 83 | Sparingly (The statement sparingly soluble means that the volume of solvent (required for dissolution) in ml per gram of solute is of from 30 to 100) | 77 | 3.3 | higher than that of the monohydrate | – | – | – | – |
| C[C@H]1c2cccc(O)c2C(=O)C2=C(O)[C@]3(O)C(=O)C(C(N)=O)=C(O)[C@@H](N(C)C)[C@@H]3[C@@H](O)[C@@H]21 [Doxycycline Monohydrate, reference compound] | Yellowish | 10Y/9/3.5 NN | – | Soluble (The statement soluble means that the volume of solvent (required for dissolution) in ml per gram of solute is of from 1 to 30) | 19 | Soluble (The statement soluble means that the volume of solvent (required for dissolution) in ml per gram of solute is of from 1 to 30) | 25 | Slightly (The statement slightly soluble means that the volume of solvent (required for dissolution) in ml per gram of solute is of from 100 to 1000) | 1000 | Slightly (The statement slightly soluble means that the volume of solvent (required for dissolution) in ml per gram of solute is of from 100 to 1000) | 333 | Slightly (The statement slightly soluble means that the volume of solvent (required for dissolution) in ml per gram of solute is of from 100 to 1000) | 1000 | – | – | – | – | – | – |
| C[C@H]1c2cccc(O)c2C(O)=C2C(=O)[C@]3(O)C(O)=C(C(N)=O)C(=O)[C@@H](N(C)C)[C@@H]3[C@@H](O)[C@@H]21.O=C(O)C(=O)O [Doxycycline Oxalate] | Yellowish | 5Y/9/4 NN | – | Slightly (The statement slightly soluble means that the volume of solvent (required for dissolution) in ml per gram of solute is of from 100 to 1000) | 500 | Very Slightly (The statement very slightly soluble means that the volume of solvent (required for dissolution) in ml per gram of solute is from 1000 to 10 000) | 1900 | Slightly (The statement slightly soluble means that the volume of solvent (required for dissolution) in ml per gram of solute is of from 100 to 1000) | 500 | Slightly (The statement slightly soluble means that the volume of solvent (required for dissolution) in ml per gram of solute is of from 100 to 1000) | 125 | Slightly (The statement slightly soluble means that the volume of solvent (required for dissolution) in ml per gram of solute is of from 100 to 1000) | 143 | 3.2 | similar | lower than that of the hyclate | lower than that of the monohydrate | – | – |
| CN(C)c1ccc(O)c2c1C[C@H]1C[C@H]3[C@H](N(C)C)C(O)=C(C(N)=O)C(=O)[C@@]3(O)C(O)=C1C2=O [Minocycline Base, 7-dimethylamino-6-demethyl-6-deoxytetracycline, reference compound] | Yellowish | 7.5Y/9/10 NN | – | – | – | – | – | – | – | – | – | – | – | 6.8 | – | – | – | – | – |
| CN(C)C1C(O)=C(C(N)=O)C(=O)C2(O)C(O)=C3C(=O)c4c(O)cccc4C(C)(O)C3CC12.O=C(O)C(=O)O (stereo not shown) [Tetracycline Oxalate] | Yellowish | 10Y/9/8 NN | – | – | – | – | – | – | – | – | – | – | – | 3.2 | – | – | – | less acidic than the pH of tetracycline | – |
| CN(C)[C@@H]1C(O)=C(C(N)=O)C(=O)[C@@]2(O)C(O)=C3C(=O)c4c(O)cccc4[C@@](C)(O)[C@H]3C[C@@H]12 [Tetracycline] | Yellowish | 5Y/9/4 NN | – | – | – | – | – | – | – | – | – | – | – | – | – | – | – | – | – |
| C[C@H]1c2cccc(O)c2C(=O)C2=C(O)[C@]3(O)C(=O)C(C(N)=O)=C(O)[C@@H](N(C)C)[C@@H]3[C@@H](O)[C@@H]21 [doxycycline hydrochloride] | – | – | – | – | – | – | – | – | – | – | – | – | – | – | – | – | – | – | about 3 |
| Demeclocycline Maleate | Yellowish | 5Y/9/2 NN | – | Soluble (The statement soluble means that the volume of solvent (required for dissolution) in ml per gram of solute is of from 1 to 30) | – | Soluble (The statement soluble means that the volume of solvent (required for dissolution) in ml per gram of solute is of from 1 to 30) | – | Sparingly (The statement sparingly soluble means that the volume of solvent (required for dissolution) in ml per gram of solute is of from 30 to 100) | – | Sparingly (The statement sparingly soluble means that the volume of solvent (required for dissolution) in ml per gram of solute is of from 30 to 100) | – | Sparingly (The statement sparingly soluble means that the volume of solvent (required for dissolution) in ml per gram of solute is of from 30 to 100) | – | 3.4 | – | – | – | – | – |
| Demeclocycline Oxalate | Yellowish | 5Y/9/2.5 NN | – | – | – | – | – | – | – | – | – | – | – | 3.3 | – | – | – | – | – |
| Minocycline Oxalate | Yellowish | 10/Y/9/3.5 NN | – | – | – | – | – | – | – | – | – | – | – | 3.0 | – | – | – | – | – |
